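Compound exposure: 48 hours, 5 concentrations, 96-well plates. At the GI50, growth is halved. TGI is the concentration that stops growth completely.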 Some results are limits rather than exact numbers.

Among the data in PubChem BioAssay (NCI) are TGI and GI50 values, retold here.

For one test, the system named is M14 melanoma. Kind of test: NCI anticancer screen, dose series, 48 h.
On to `CC(=O)O[C@]12CCCCCC1C1(O)C(O)CCC[C@H]12` (some centres undefined), for which the TGI is greater than 100 µM.

In turn, `CC(C)(C)NC(=O)/C(=C\Sc1ccccc1)c1ccc2c(c1)OCO2` came in with a TGI of 54.8 µM.

`COCOc1ccc(Cn2c(=O)n(C)c(=O)c3c2ncn3C)cc1[N+](=O)[O-]`: the TGI is greater than 100 µM.

The compound `Cc1c2c(n(CCc3ccc(Cl)cc3)c1C)NN=C(C#N)S2(=O)=O` had a TGI greater than 100 µM.

In the case of `COc1ccc2cc(-c3ccc(-c4ccc(C(=N)N)s4)s3)ccc2c1`, the GI50 is 4 µM and the TGI was 15.7 µM.

In the case of `N#CCCN(CCC#N)c1ccc(/C=C2\N=C(c3ccccc3)N(c3ccc(Cl)cc3)C2=O)cc1`, the TGI is greater than 100 µM.

The compound `Cc1c(S(=O)(=O)/N=C(\N)Nc2ccc(Cl)cc2)sc2ccc(Cl)cc12` yielded a TGI of 37.9 µM.

`BrC/C=C/C[P+](c1ccccc1)(c1ccccc1)c1ccccc1`: the TGI worked out at 82.4 µM.

Regarding `Cc1cc(=O)c2c([nH]1)NS(=O)(=O)NC2=O`, the TGI is greater than 100 µM.

`CC(=O)N/N=C1\NC(=O)C[C@H]2[C@@H]3CC=C4C[C@@H](OC(C)=O)CC[C@]4(C)[C@H]3CC[C@]12C`: the TGI is greater than 100 µM.

Regarding `C=C[C@@H]1C(CO)=CCC2[C@H]1CCC1C(C)(C)C(=O)CC[C@]21C` (some centres undefined), the TGI is greater than 100 µM.

`COc1ccc2nc3cc(Cl)ccc3c(NCCCNCCCNc3c4ccc(Cl)cc4nc4ccc(OC)cc34)c2c1` had a TGI of 0.157 µM.

`C=CCNC(=S)/N=C/c1c(O)c2ccccc2oc1=O`: the TGI was greater than 100 µM.

`CCOC(=O)c1c(-c2ccc(OC)cc2)c(C#N)c(=S)n(C2OC(COC(C)=O)C(OC(C)=O)C(OC(C)=O)C2OC(C)=O)c1C` (centres undefined) yielded a TGI greater than 100 µM.

As for `C1=CC2=CC=CC3c4nc5ccc6ccccc6c5nc4C(=C1)C23` (centres undefined), the TGI is greater than 100 µM.

As to `O=C(CCCN1CCC2(CC1)CC(=O)N(N1CCOCC1)C2=O)c1ccccc1`, the TGI is greater than 100 µM.

Compound `CC(=O)N(C(C)=O)C1=C2c3ccccc3N(S(=O)(=O)c3ccccc3)C2n2c(=O)n(-c3ccccc3)c(=O)n2C1` (centres undefined) showed a TGI of 69.4 µM.

For the compound `COc1ccc(C(OCC2OC(n3cc(C)c(=O)[nH]c3=O)CC2n2cc(Cn3cc(F)c(=O)[nH]c3=O)nn2)(c2ccccc2)c2ccccc2)cc1` (centres undefined), the TGI amounted to 27.9 µM.

Compound `C=CCn1c(=O)ccn(COCCO)c1=O` yielded a TGI greater than 100 µM.

As for `CCCCC1c2c([nH]c3ccccc23)C2C(=O)N(c3ccc(OC)cc3)C(=O)C2C1CCC` (centres undefined), the TGI came out at 8.53 µM.

`C(=N\NC1=NCCCN1)/c1ccc2ccccc2c1` showed a TGI of 22.1 µM.

`O=C(N=Nc1cc(Cl)ccc1Cl)NNc1cc(Cl)ccc1Cl` gave a TGI of 32.5 µM.

In turn, `CSc1cc(Cl)c(C)cc1S(=O)(=O)NC(=O)NNc1ccc(Cl)cc1` came in with a TGI greater than 100 µM.

Consider `O=C(CNc1ccccc1Cl)Nn1c(-c2ccccc2)nc2ccccc2c1=O`, for which the TGI is greater than 10 µM.

The compound `O=c1ccc2cc3ccc4cccc5ccc(c2o1)c3c45` registered a TGI greater than 100 µM.

Compound `CC1(C)N=C(C(N)=O)c2ncn(CCCO)c2N1` had a TGI greater than 100 µM.

The test system of a further test is ACHN renal. Nature of the test: NCI anticancer screen, dose series, 48 h.
Regarding `CC(=O)O[C@]12CCCCCC1C1(O)C(O)CCC[C@H]12` (some centres undefined), the TGI is greater than 100 µM.

`CC(C)(C)NC(=O)/C(=C\Sc1ccccc1)c1ccc2c(c1)OCO2`: the TGI is greater than 100 µM.

As to `COCOc1ccc(Cn2c(=O)n(C)c(=O)c3c2ncn3C)cc1[N+](=O)[O-]`, the TGI was greater than 100 µM.

Regarding `Cc1c2c(n(CCc3ccc(Cl)cc3)c1C)NN=C(C#N)S2(=O)=O`, the TGI was greater than 100 µM.

On to `COc1ccc2cc(-c3ccc(-c4ccc(C(=N)N)s4)s3)ccc2c1`, for which the GI50 was 3.06 µM and the TGI is 8.76 µM.

For `N#CCCN(CCC#N)c1ccc(/C=C2\N=C(c3ccccc3)N(c3ccc(Cl)cc3)C2=O)cc1`, the TGI was greater than 100 µM.

As to `Cc1c(S(=O)(=O)/N=C(\N)Nc2ccc(Cl)cc2)sc2ccc(Cl)cc12`, the TGI was determined as 32.2 µM.

`BrC/C=C/C[P+](c1ccccc1)(c1ccccc1)c1ccccc1`: the TGI is greater than 100 µM.

With `COc1cc([N+](=O)[O-])c(OC)cc1-c1nc2sc(Cl)cn2c1/C=N/Nc1ccccn1`, the GI50 was 8.43 µM and the TGI was 16.9 µM.

`CC(=O)N/N=C1\NC(=O)C[C@H]2[C@@H]3CC=C4C[C@@H](OC(C)=O)CC[C@]4(C)[C@H]3CC[C@]12C` showed a TGI of 52.7 µM.

`C=C[C@@H]1C(CO)=CCC2[C@H]1CCC1C(C)(C)C(=O)CC[C@]21C` (some centres undefined) gave a TGI greater than 100 µM.

In turn, `COc1ccc2nc3cc(Cl)ccc3c(NCCCNCCCNc3c4ccc(Cl)cc4nc4ccc(OC)cc34)c2c1` registered a TGI of 0.174 µM.

`C=CCNC(=S)/N=C/c1c(O)c2ccccc2oc1=O` yielded a TGI greater than 100 µM.

Take `CCOC(=O)c1c(-c2ccc(OC)cc2)c(C#N)c(=S)n(C2OC(COC(C)=O)C(OC(C)=O)C(OC(C)=O)C2OC(C)=O)c1C` (centres undefined): the TGI is greater than 100 µM.

In turn, `C1=CC2=CC=CC3c4nc5ccc6ccccc6c5nc4C(=C1)C23` (centres undefined) had a TGI greater than 100 µM.

For the compound `O=C(CCCN1CCC2(CC1)CC(=O)N(N1CCOCC1)C2=O)c1ccccc1`, the TGI was greater than 100 µM.

`CC(=O)N(C(C)=O)C1=C2c3ccccc3N(S(=O)(=O)c3ccccc3)C2n2c(=O)n(-c3ccccc3)c(=O)n2C1` (centres undefined) showed a TGI greater than 100 µM.

The compound `COc1ccc(C(OCC2OC(n3cc(C)c(=O)[nH]c3=O)CC2n2cc(Cn3cc(F)c(=O)[nH]c3=O)nn2)(c2ccccc2)c2ccccc2)cc1` (centres undefined) had a TGI of 27.2 µM.

`C=CCn1c(=O)ccn(COCCO)c1=O` showed a TGI greater than 100 µM.

`CCCCC1c2c([nH]c3ccccc23)C2C(=O)N(c3ccc(OC)cc3)C(=O)C2C1CCC` (centres undefined): the TGI was greater than 10 µM.

Turning to `C(=N\NC1=NCCCN1)/c1ccc2ccccc2c1`, the TGI worked out at 22.2 µM.

On to `CSc1cc(Cl)c(C)cc1S(=O)(=O)NC(=O)NNc1ccc(Cl)cc1`, for which the TGI was greater than 100 µM.

`O=C(CNc1ccccc1Cl)Nn1c(-c2ccccc2)nc2ccccc2c1=O` came in with a TGI greater than 100 µM.

Take `O=c1ccc2cc3ccc4cccc5ccc(c2o1)c3c45`: the TGI turned out to be 34 µM.

`CC1(C)N=C(C(N)=O)c2ncn(CCCO)c2N1`: the TGI was greater than 100 µM.

A further test deals with SN12C renal. Kind of test: NCI anticancer screen, dose series, 48 h.
As for `CC(=O)O[C@]12CCCCCC1C1(O)C(O)CCC[C@H]12` (some centres undefined), the TGI was greater than 100 µM.

Turning to `CC(C)(C)NC(=O)/C(=C\Sc1ccccc1)c1ccc2c(c1)OCO2`, the TGI is 84.2 µM.

`COCOc1ccc(Cn2c(=O)n(C)c(=O)c3c2ncn3C)cc1[N+](=O)[O-]` came in with a TGI greater than 100 µM.

For `Cc1c2c(n(CCc3ccc(Cl)cc3)c1C)NN=C(C#N)S2(=O)=O`, the TGI is greater than 100 µM.

With `COc1ccc2cc(-c3ccc(-c4ccc(C(=N)N)s4)s3)ccc2c1`, the GI50 is 2.12 µM and the TGI amounted to 4.65 µM.

For the compound `N#CCCN(CCC#N)c1ccc(/C=C2\N=C(c3ccccc3)N(c3ccc(Cl)cc3)C2=O)cc1`, the TGI is greater than 100 µM.

Regarding `Cc1c(S(=O)(=O)/N=C(\N)Nc2ccc(Cl)cc2)sc2ccc(Cl)cc12`, the TGI was found to be 31.2 µM.

In turn, `BrC/C=C/C[P+](c1ccccc1)(c1ccccc1)c1ccccc1` came in with a TGI greater than 100 µM.

As to `Cc1cc(=O)c2c([nH]1)NS(=O)(=O)NC2=O`, the TGI is greater than 100 µM.
